Assay results reported in US20210144999A1, “COMPOSITIONS COMPRISING HYDROXYCINNAMIC ACID AND RELATED CONJUGATES, ANALOGUES AND DERIVATIVES, AND METHODS OF USE THEREOF” (YEDA RESEARCH AND DEVELOPMENT CO. LTD., priority 2017, published 2021).
“Also recorded” adds a separate entry of the source.

Key:
B. subtilis biofilms = assay: B. subtilis biofilm stability / maintenance in vitro; assay type: cell-based; details: for effect on beneficial biofilms (stability / maintenance), single agent: in vitro, biofilms at day 1 and day 5
Experimental: Shown are biofilms of treated and untreated B. subtilis biofilms.
Strains and Media All experiments were performed with B. subtilis NCBI3610 and its derivatives. Assays were carried out with the biofilm-inducing medium, MSgg: 5 mM potassium phosphate, 100 mM MOPS (pH 7), 2 mM MgCl2, 50 μM MnCl2, 1 μM ZnCl2, 2 μM thiamine, 0.5% glycerol, 0.5% glutamate, 50 μg/ml tryptophan, 50 μg/mlphenylalanine 50 μg/ml threonine, 700 μM CaCl2, and 50 μM (for growth assays) or 125 μM (for biofilm assays) FeCl3^1. A solid MSgg medium was obtained by adding Bacto agar (Difco) to a final concentration of 1.5%. When necessary, selective medium was prepared with LB-agar or LB broth, supplemented with: 100 μg/ml ampicillin (amp) (AG Scientific), or 10 μg/ml kanamycin (kan) (AG Scientific), or 10 μg/ml chloramphenicol (cam) (Amresco), or 10 μg/ml tetracycline (tet) (Amresco), or 100 μg/ml spectinomycin (spec) (Tivan Biotech), or 1 μg/mlerythromycin (erm) (Amresco)+25 μg/ml lincomycin (linc) (Sigma Aldrich).

[1] = tested on: pseudomonas syringae pv. Tomato; assay: Tomato plant survival after pseudomonas syringae pv. Tomato infection (Example 9); assay type: in vivo, tomato plants; details: 5 μM caffeic acid or 5 μM putrescine or 2.5 μM each; putrescine read 28 days after infection
Experimental: Bacillus strain B. subtilis 3610 (B.S) are maintained on LB plates. 1000 cells of B.S. with or without the addition of 5 μM of caffeic acid or 5 μM of putrescine, or 2.5 μM each of caffeic acid and putrescine are added to tomato plants grown on agrophonic beads. Plants are incubated at 28±2° C. for 15 days.

[2] = tested on: pks operon (PKS promoter); assay: pks expression, amyE::Ppks-gfp fluorescence reporter; assay type: cell-based, B. subtilis
Experimental: FIGS. 3A:-3H Specialized host-derived metabolites increase PKS activity while B. subtilis biofilms increase plant Induced Systemic Resistance (ISR). (FIG. 3A) Quantification of pks expression (amyE::Ppks-gfp) in B. subtilis over time in response to different hydrophobicity fractions of plant root exudate. Expression was measured using fluorescent intensity of GFP fused to the PKS promoter. Color-coded curves indicate ascending methanol concentrations used for consecutive washings of root exudate from Silica-based bonded phase with strong hydrophobicity; darker curve indicates the first flow-through of the loaded root exudate from the silica cartridge. Orange curve indicate the pks expression kinetics without treatment. (FIG. 3B) Quantification of pks expression (amyE::Ppks-gfp) in B. subtilis over time in response to plant root metabolites. Expression was measured by fluorescent intensity of GFP fused to the PKS promotor. Color-coded curves indicate 5, 50,100 and 150 μM of the four metabolites: Methyl β-D-Glucopyranosid (upper left), Chromone (upper right), Chlorogenic acid (lower left) and Caffeic acid (lower right). Orange curve indicate the pks expression kinetics without treatment. (FIG. 3C) Fluorescence imaging of pks expression (amyE::Ppks-gfp) in a single cell resolution 5 h after B. subtilis was grown in MSgg (control) liquid culture supplemented with 150 μM of Chlorogenic acid and Caffeic acid. Images presented as over-layered channels of TL-phase and EGFP. Scale bar—[…]. […] Pathogenicity was measured in E. sativa seedlings whose roots were inoculated with B. subtilis, S. plymuthica and their combination in ratios of 1:1, 100:1 and 1:100. […]
Fluorescence microscopy. […] Cells were s visualized by fluorescence microscopy; Phase contrast and signal from Ppks-gfp (green) are shown. Fluorescent cell count and intensity levels were recorded for 10 fields in each treatment, at least 1000 cells were quantified for each treatment.

B. subtilis = assay: Planktonic growth (OD600) in liquid MSgg; assay type: cell-based; details: caffeic acid at indicated concentrations, 30° C.
Experimental: Planktonic growth of wild type grown at 30° C. with shaking in liquid MSgg medium without (untreated) or caffeic acid at indicated concentrations was monitored by measuring OD600in a microplate reader. Results are averages of four wells within one experiment and their standard deviations. A representative of three independent experiments is shown.
(§1) pks expression analysis. pks expression in the presence of plant metabolites was analyzed as following: the luminescence intensity of cells harboring a PpksC-lux transcriptional promoter fusion was analyzed. Cells were grown to a mid-logarithmic phase, diluted 1:100 in 150 μl liquid MSgg medium, either with or without root exudate. Cells were grown in a 96-well microplate (Thermo Scientific, Roskilde, Denmark) with agitation at 30° C. for 16 h in a microplate reader (Synergy 2, BioTek, Winooski, Vt., USA) measuring luminescence intensity and the optical density at 600 nm (OD600) every 15 min.

[3] = tested on: B. subtilis 3610 biofilms; assay: Biofilm maintenance (% coverage) on tomato roots in planta; assay type: in vivo; details: 1000 B. subtilis cells with or without materials, tomato plants on agrophonic beads
Experimental: (FIGS. 17A-17C) B. subtilis 3610 constantly expressing the fluorescent protein mKate2 was maintained on LB plates. 1000 cells either applied or non-applied with the materials indicated were added to tomato plants grown on agrophonic beads. % coverage was calculated based on quantifying 20 fields from the fluorescent microscope using Image J. Three replications were maintained for each assay. SD represents the average of three independent experiments.

[4] = tested on: pks operon (PpksC promoter); assay: pks expression, PpksC-lux luminescence reporter; assay type: cell-based, B. subtilis; details: library of 400 plant metabolites, growth-normalized RLU
Experimental: FIGS. 23A-23B: An ester of caffeic acid induces antibiotic production. (FIG. 23A) Scheme of a screen of plant metabolites for pks induction. (FIG. 23B) Growth-normalized RLU of PpksC-lux strain treated with a small molecule library representative as in A, compared with the treatment in root exudate.
as §1
A library of 400 plant metabolites was screened for pks induction using B. subtilis cells carrying the PpksC-lux construct (FIG. 23A).

Compound: NCCCCN [putrescine]
- effect on beneficial biofilms (stability / maintenance), single agent (B. subtilis biofilms): little or no biological effect
- tomato plant survival after pseudomonas syringae pv. Tomato infection [1]: little or no biological effect on tomato plant survival

Compound: O=C(O)/C=C/c1ccc(O)c(O)c1 [caffeic acid]
- number of cells expressing the pks operon ([2]; 150 μM, 5 h, single cell fluorescence): induced the number of cells expressing the pks operon
- average pks expression level ([2]; 150 μM, single cell fluorescence, versus control): comparable to the control
- pks (PKS) expression ([2]; B. subtilis amyE::Ppks-gfp, liquid MSgg, 5, 50, 100 and 150 μM): activatespks operon; also recorded: significantly enhanced PKS expression
- planktonic growth of B. subtilis (B. subtilis): no impact on planktonic growth; also recorded: little or no effect on the growth of B. subtilis
- duration of increased stability of bacterial beneficial biofilms (B. subtilis biofilms; caffeic acid alone, 100 μM, laboratory conditions): up to 4 days
- effect on beneficial biofilms (stability / maintenance), single agent (B. subtilis biofilms): can promote biofilm maintenance
- protective biofilms in planta on tomato roots (% coverage) [3]: sustained protective biofilms in planta on tomato roots
- protective biofilms in planta on tomato roots (% coverage) ([3]; listed as Caffeic acid): can promote biofilm maintenance
- tomato plant survival after pseudomonas syringae pv. Tomato infection [1]: increased tomato plant survival

Compound: O=C(/C=C/c1ccc(O)c(O)c1)O[C@@H]1C[C@](O)(C(=O)O)C[C@@H](O)[C@H]1O [chlorogenic acid]
- pks activation in screen of plant metabolites [4]: activatespks operon; also recorded: induced pks activation

Compound: O=c1ccc2cc(O)c(O)cc2o1 [aesculetin]
- pks activation in screen of plant metabolites [4]: activatespks operon; also recorded: induced pks activation
